Format in all cases: cell-based
Experiment [1] deals with cells resistant to Compound K2. Put plainly: Soft agar 3D culture. As to conditions: combination with Compound K2 (a KRAS inhibitor); 11-14 day incubation; Gelcount cell counting. On the procedure: Two heat blocks (1× without blocks, 1× with 50 ml tube block) were heated to 44° C. Flat-bottom 96-well non-tissue culture treated assay plates (Falcon 353219) and fluid reservoirs were kept at 37° C. 2×RPMI+20% FCS (which can be stored at 4° C.) were made and warmed to 37° C. 100 ml 1.2% agarose and 0.58% agarose solution was made by adding […] sterile water to a sterile 500 ml bottle and then carefully adding 1.2 gram/0.58 gram agarose (using normal out-of-the-hood weight), avoiding bubbles, foam, and sticking of undiluted agarose to walls as much as possible. The solution was then microwaved until fully dissolved and bubbling. The solution was then cooled for 10-15 minutes at room temperature and incubated at 37° C. The solution can be stored at room temperature for future use.
For each plate, 2 ml 1.2% agarose was mixed with 2 ml 2×RPMI+20% FCS in a 50 ml tube in a heat block by swirling the tube (minimizing pipetting up and down, as this cools the agarose too much). By double-tap (pipet is pushed in completely, liquid is taken up, then pushed out until first stop only), 40 μl 1.2% agarose/96-well was added, excluding edge 96-wells. The agarose was set at “waterpas” level and stored at 4° C. until further use. 1.2% agarose-containing plate was placed on ice for 10 minutes before plating cells.
Cells were trypsinized and counted. […]

For a further experiment, the system named is H2122 cells (KRAS G12C). Nature of the experiment: Drug combination assay (CellTiter-Glo cell viability). As to conditions: six days, 384-wells. As for the experimental part:
(§1) Cells were seeded in either 96-well or 384-well plates 16 h before treatment at a density of 1000 cells per well. Then, cells were treated with varying concentrations of compound(s) as indicated in FIGS. 1-8 (384-wells) and FIGS. 10-105 (96-wells), either a single agent or in combination, for six days. The relative number of viable cells was estimated using CellTiter-Glo Luminescent Cell Viability Assay (Promega, G7573). Total luminescence was detected on a Wallac Multilabel Reader (Perkin-Elmer).

Another experiment concerns H2030 cells (KRAS G12C). The experiment is described as above. The note with it: six days, 96-wells. As for the experimental part: as §1
The subject of experiment [2] is H358 parental cells (KRAS G12C). The experiment is described as above. The note with it: six days, 96-wells. On the procedure:
as §1

The test system of experiment [3] is H358 resistant cells (KRAS G12C). The experiment is described as above. The note with it: six days, 96-wells. As for the experimental part: as §1
The mark [4] stands for this setting: combination with Compound K1 (a KRAS inhibitor).
Setting [5] is: combination with Compound K2 (a KRAS inhibitor).
Setting [6] is: combination with Compound K3 (a KRAS inhibitor).
Setting [7] is: combination with Compound K4 (a KRAS inhibitor).

Consider `C=CC(=O)Nc1cc2c(c(-c3ccc(C(C)C)cc3)c1)OCC2` [Compound T2, N-(7-(4-isopropylphenyl)-2,3-dihydrobenzofuran-5-yl)acrylamide], for which the “soft agar 3D culture growth” value in experiment [1] was “sensitizes cells resistant to Compound K2”. The “% inhibition of H2122 cells (KRAS G12C)” value is given as “sensitizes cells resistant to Compound K1” in the experiment with H2122 cells (KRAS G12C) (setting [4]) and “sensitizes cells resistant to Compound K2” in the experiment on H2122 cells (KRAS G12C) (setting [5]).
For `C=CC(=O)Nc1cnc(OC)c(/C=C/[C@H]2CC[C@H](C(F)(F)F)CC2)c1` [Compound T3, N-(6-methoxy-5-((E)-2-((1r,4r)-4-(trifluoromethyl)cyclohexyl)vinyl)pyridin-3-yl)acrylamide], the “% inhibition of H2030 cells (KRAS G12C)” value in the experiment on H2030 cells (KRAS G12C) (setting [4]) is on record as “sensitizes cells resistant to Compound K1”; in the experiment on H2030 cells (KRAS G12C) (setting [5]), “sensitizes cells resistant to Compound K2”; in the experiment with H2030 cells (KRAS G12C) (setting [6]), “sensitizes cells resistant to Compound K3”; in the experiment on H2030 cells (KRAS G12C) (setting [7]) it was “sensitizes cells resistant to Compound K4”. For the same molecule, the “% inhibition of H2122 cells (KRAS G12C)” value in the experiment with H2122 cells (KRAS G12C) (setting [4]) was “sensitizes cells resistant to Compound K1”; in the experiment with H2122 cells (KRAS G12C) (setting [5]), “sensitizes cells resistant to Compound K2”. Moreover, the “% inhibition of H358 parental cells (KRAS G12C)” value in experiment [2] (setting [4]) is on record as “sensitizes cells resistant to Compound K1”; in experiment [2] (setting [5]), “sensitizes cells resistant to Compound K2”; in experiment [2] (setting [6]) it was “sensitizes cells resistant to Compound K3”; in experiment [2] (setting [7]), “sensitizes cells resistant to Compound K4”. Besides, the “combination effect on cell viability (qualitative)” value in experiment [3] (setting [4]) was “sensitizes cells resistant to Compound K1”; in experiment [3] (setting [5]) it was “sensitizes cells resistant to Compound K2”; in experiment [3] (setting [6]) it was “sensitizes cells resistant to Compound K3”; in experiment [3] (setting [7]), “sensitizes cells resistant to Compound K4”.

For the origin of these results see US20240148733A1, “COMBINATION THERAPY” (Genentech, Inc., priority 2021, published 2024).
